In this assay the test system is Saccharomyces cerevisiae INVSc1 yeast cells. In words: Yeast growth inhibition experiment (Quant-Screen Yeast Assay and OD600). The conditions noted are these: INVSc1 in YPD medium, 6 hours at 30° C., different concentrations. Type of assay: cell-based. The method, then: Serial dilutions of a yeast cell suspension prepared in culture media was placed in each well of a 96-well plate (100 μl/well). Next, 100 μl of reaction buffer containing the CDP-Star® substrate was added to each well. The light emission was then immediately measured in a luminometer (TR717®) (1 sec/well) or NorthStar® (60 sec/plate).
An equivalent aliquot of yeast cell suspension (INVSc1) were inoculated into tubes with 2 ml of minimum medium containing various concentrations of leucine and were grown overnight at 30° C. with shaking. The overnight cultures were then measured by a spectrophotometer at 600 nm to estimate cell density. Next, each of the overnight cultures was transferred (100 μl/well) into a 96-well microplate in triplicate. An equal volume of reaction buffer was added. The plate was placed in TR717™ (a luminometer) to measure total light emission.
100 μof log phase growing yeast cells, INVSc1, were inoculated into tubes with 1 ml of YPD medium containing different concentrations of actinomycin D, a […]. The cultures were grown at 30° C. with shaking for 6 hours. The cultures were measured for OD600 in a spectrophotometer. Next, the cells were transferred (100 μl/well) in triplicate in a 96-well microplate. The assay was performed as in the Growth Stimulation Experiment set forth above.

Numbered stars: 1 amine (or outer) side, 2 acyl side, 3 side chain; on linkers, the order of the positions; unused ones are H or OH. Bridge positions count the residues as written; N and C are the ends. Square brackets hold non-standard residues; d marks the D form. Peptide text beside a SMILES is read from it. I, II: the chains in the order shown. Actinocin(9to1) = Cc1c2oc3c(C)ccc(C(=O)[*:1])c3nc-2c(C(=O)[*:2])c(N)c1=O; NMeV = CN[C@H](C(=O)O)C(C)C; Sar = CNCC(=O)O

Experimental findings from US20020132364A1, “Quant-screentm chemiluminescent assays” (priority 2001, published 2002) are described below.

For `Cc1c2oc3c(C)ccc(C(=O)N[C@@H]4C(=O)N[C@H](C(C)C)C(=O)N5CCC[C@H]5C(=O)N(C)CC(=O)N(C)[C@@H](C(C)C)C(=O)O[C@@H]4C)c3nc-2c(C(=O)N[C@@H]2C(=O)N[C@H](C(C)C)C(=O)N3CCC[C@H]3C(=O)N(C)CC(=O)N(C)[C@@H](C(C)C)C(=O)O[C@@H]2C)c(N)c1=O` [actinomycin D] (I: T[dV]P[Sar][NMeV] / II: T[dV]P[Sar][NMeV]; ester I:1-I:C, II:1-II:C; linker I:N-II:N via Actinocin(9to1)), the “O.D. measurement (OD600)” value was “declined with increasing concentrations” and the “signal intensity (Quant-Screen Yeast Assay, endogenous alkaline phosphatase, light emission)” value is “declined with increasing concentrations”.
